Source: ChEMBL document CHEMBL5729236, “CIS-morpholinone and other compounds as MDM2 inhibitors for the treatment of cancer” (2022)

What follows are compounds tested against E3 ubiquitin-protein ligase Mdm2 (Homo sapiens, UniProt Q00987) (assay: HTRF2 Assay: As the potencies of the HDM2 inhibitors increased, an improved HTRF assay (HTRF2 assay) was developed. All assay conditions remained the same as described above, with the exception of the following changes in reagent concentrations: 0.2 nM GST-hMDM2 (1-188), 0.5 nM biotinylated-p53 (1-83), 0.18 nM SA-XLent, and 100 mM KF.).
Sequence of E3 ubiquitin-protein ligase Mdm2 (Q00987 whole entry): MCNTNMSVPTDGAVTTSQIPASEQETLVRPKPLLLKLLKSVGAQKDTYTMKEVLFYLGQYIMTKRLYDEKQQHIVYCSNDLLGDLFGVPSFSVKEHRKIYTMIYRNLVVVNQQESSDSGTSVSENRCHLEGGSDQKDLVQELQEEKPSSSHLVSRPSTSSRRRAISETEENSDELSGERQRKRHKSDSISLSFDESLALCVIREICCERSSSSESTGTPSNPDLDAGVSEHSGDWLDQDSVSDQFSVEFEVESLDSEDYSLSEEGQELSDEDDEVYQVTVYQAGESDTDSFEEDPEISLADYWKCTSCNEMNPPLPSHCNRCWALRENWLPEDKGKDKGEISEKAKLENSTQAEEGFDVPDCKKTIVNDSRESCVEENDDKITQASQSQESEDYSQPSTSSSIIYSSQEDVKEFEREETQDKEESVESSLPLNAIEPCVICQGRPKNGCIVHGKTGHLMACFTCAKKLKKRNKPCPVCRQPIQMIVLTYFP
Compound O=C1[C@H](CCCO)O[C@@H](c2cccc(Cl)c2)[C@@H](c2ccc(Cl)cc2)N1CC1CC1 (mixture of isomers) has an IC50 of 7230 nM. CCC[C@H](C(=O)O)N1C(=O)CO[C@@H](c2ccc(Cl)cc2)[C@H]1c1cc2ccccc2[nH]1 (mixture of isomers) was tested, and the IC50 was 1290 nM. Work on CCC[C@H](C(=O)N1CC(C(=O)O)C1)N1C(=O)[C@H](Cc2ccc(F)cc2)O[C@@H](c2ccc(Cl)cc2)[C@H]1c1ccc(Cl)cc1 (mixture of isomers) yielded an IC50 of 524 nM.
